Laboratory results taken from patent US20240382517A1, “Topical Pharmaceutical Skin Composition for the Delivery of Nitric Oxide in Combination with Other Topical Dermatologic Agents” (NOxy Health Products, Inc., priority 2023, published 2024).
“Also recorded” adds a separate entry of the source. Where a name gives a salt, the structure may show the parent alone.

Tests used:
Type in all cases: physicochemical
[1] = NOx release from mixed liquids, Thermoscientific 42iQLS Gas Analyzer
Excerpt: For the NO release testing, one mL of each solution was dispensed into a weight boat using the pipetter. A new pipette tip was used for each aliquot. For NO release measurements, the weigh boat was then placed into the sampling bin of a Thermoscientific 42iQLS Gas Analyzer, and the lid placed on top. The analyzer began measuring NOx released from the mixed liquid in the weigh boat as indicated by the rise of both the NO and NO2 measurements on the screen of the analyzer, a 10-minute timer was started.
Once the datalogger had collected 70 time points (700 seconds) of data: • 1. the data logging program was halted • 2. The weigh boat was removed from the chamber and disposed of in a separate room • 3. A fan was used to blow fresh air into the testing chamber for 10 seconds • 4. The next test was conducted when the analyzer measured less than 5 ppm total NOx […]
About 1 mL of Manuka honey was mixed with 1 mL of standard second (B) solution (not including BAC). […]

[2] = pH of lidocaine HCl solution, calibrated lab pH meter; conditions: 4 percent solution in water
Method: A 4% w/w solution of lidocaine in deionized water was prepared. The pH of the solution was measured using a conventional calibrated lab pH meter.

[3] = Mixing of lidocaine HCl solution into the first (A) solution in a stable manner; conditions: first (A) solution not including BAC; monitoring time three minutes
Excerpt: The monitoring time was three minutes.

[4] = NOx production of mixed foams, Thermoscientific 42iQLS Gas Analyzer; conditions: 0.4 M, 0.5 M, 0.6 M ascorbic acid as first (A) solution + second (B) solution without BAC; compared to citric acid; FIG. 4
Method: Methods. Solutions A and B were agitated by vigorous shaking until they produced foams. Then, two pumps of foam A (from Solution A) and foam B (from Solution B) were added to a weigh boat, and then the resulting mixture was thoroughly mixed with a gloved finger for five seconds. The resulting mixture was then placed in the sample chamber for measurement using a Thermoscientific 42iQLS Gas Analyzer. The measured concentration of the NOx produced was recorded every ten seconds. Using the Ideal Gas Law, the mass in mols of NOx was calculated.
The first (A) solution was prepared as described in Example 1, except BAC was not included. The second (B) solution was prepared by dissolving salicylic acid in a stoichiometric amount of sodium hydroxide dissolved in water. Once all of the salicylic acid was dissolved, sodium nitrite and coco betaine were added. The first (A) and second (B) solutions were then mixed. A foam was produced upon the mixing/priming of the first (A) solution and the second (B) solution.
Three solutions of ascorbic acid (0.4 M, 0.5 M, and 0.6 M) were prepared and used as first (A) solutions. The second (B) solution was as provided in Example 1 except that BAC was not included. The solutions were poured into small foam dispensers. One squirt of foam from each of the first (A) solution and the second (B) solution was combined in a weight boat and NOx formation was measured.

Row | SMILES | NOx release ([1]; 4 percent lidocaine HCl solution mixed with second (B) solution (no BAC) only, FIG. 6) | NOx release ([1]; 4 percent lidocaine HCl solution mixed with standard first (A) and second (B) solutions (no BAC), FIG. 7) | pH [2] | reaction on mixing with the standard first (A) solution [3] | production of NOx [4]
1 | CCN(CC)CC(=O)Nc1c(C)cccc1C [lidocaine HCl] | NO was produced; also recorded: Only a small amount of NOx was released | NO was also produced; also recorded: a large amount of NOx was released | 4.16 | No reaction was observed | 
2 | O=C1O[C@H]([C@@H](O)CO)C(O)=C1O [ascorbic acid] |  |  |  |  | lower levels of production of NOx than citric acid
